US20220054493A1, “INHIBITORS OF NGAL PROTEIN” (INSERM (INSTITUT NATIONAL DE LA SANTÉ ET DE LA RECHERCHE …, priority 2019, published 2022)

How the values were obtained:
[1] = target: T1, hERG channel (Homo sapiens, UniProt Q12809); assay: Cardiotoxicity, Predictor hERG fluorescence polarization kit; assay type: binding
T1 construct: purchased Thermo Fisher Scientific
Experimental: (§1) Two specific toxicity assays have been performed to assess hepatoxicity and cardiotoxicity. Hepatotoxicity was evaluated in isolated hepatocytes from swiss mice and determined by the MTT colorimetric assay. Cardiotoxicity was evaluated using the commercially available Predictor hERG fluorescence polarization kit (Thermo Fisher Scientific). Several ADME assays have been carried out on the compounds generated throughout the project. The following experiments were undertaken: Stability in human microsomes, binding to human plasma protein, and CYP3A4 inhibition assay (Vivid CYP3A4 assay, Thermo Fisher Scientific). Physico-chemical properties were also assessed such as aqueous solubility and chemical stability.

[2] = target: T2, CYP3A4 (Homo sapiens, UniProt P08684); assay: CYP3A4 inhibition assay (Vivid CYP3A4 assay); assay type: in vitro ADME
T2 construct: purchased Thermo Fisher Scientific
T2 sequence (P08684 whole entry): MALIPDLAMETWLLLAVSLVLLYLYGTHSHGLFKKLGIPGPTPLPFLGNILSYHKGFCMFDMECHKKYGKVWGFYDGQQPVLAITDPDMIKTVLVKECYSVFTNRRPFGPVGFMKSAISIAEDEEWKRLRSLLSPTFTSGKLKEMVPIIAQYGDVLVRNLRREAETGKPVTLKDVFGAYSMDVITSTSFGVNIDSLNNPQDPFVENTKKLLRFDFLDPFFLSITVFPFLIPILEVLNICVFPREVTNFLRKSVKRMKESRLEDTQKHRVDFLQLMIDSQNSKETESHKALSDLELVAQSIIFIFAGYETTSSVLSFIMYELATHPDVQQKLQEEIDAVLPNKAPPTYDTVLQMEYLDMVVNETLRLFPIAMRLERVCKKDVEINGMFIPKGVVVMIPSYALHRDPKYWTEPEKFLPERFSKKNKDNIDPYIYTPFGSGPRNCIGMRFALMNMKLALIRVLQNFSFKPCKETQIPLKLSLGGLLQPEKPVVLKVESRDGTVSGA
Experimental: as §1

[3] = test system: CKD Mouse Model; assay: Renal profibrotic and inflammatory gene expression in the CKD mouse model; assay type: in vivo, mice; settings: kidney, two months administration
Experimental: Chronic kidney disease (CKD) was induced by subtotal nephrectomy (Nx) in eight-weeks-old FVB male mice (25-26 g). All surgeries were performed under ketamine/xylazine anaesthesia. Briefly, the left kidney was exposed, and the upper and lower poles were tied with a poly-glycolic acid suture line. The peritoneum and skin were then sutured, and the animals were returned to their individual cages. After one week of recovery, the second kidney was removed. Removal of the second kidney represents TO. Sham mice were subjected to the same surgical procedures but neither renal poles nor the right kidney were removed. Mice were monitored for any sign of distress, and those observed to be experiencing severe, unrelievable pain were euthanized. Renal failure was assessed by the measure of plasma creatinine and urea with an automatic analyser (Konelab 20i; Thermo Fisher Scientific, Vernon Hills, Ill.) at weeks 4 and 10 post-Nx.
Frozen tissues (kidneys, heart) were homogenized in TRIzol (Life Technologies, 15596018) using FastPrep beads (MP-Bio, 6913-100). cDNAs were generated using the Superscript II reverse transcriptase kit (Invitrogen, 18064022), and qPCR was performed as previously described. Briefly, transcript levels were analysed in a CFX396 apparatus (Biorad). The reactions were performed in duplicate for each sample using the IQ SYBR Green supermix Kit (Biorad, 170-8882). […]

[4] = test system: aldosterone-induced profibrotic marker synthesis; assay: Aldosterone-induced profibrotic marker synthesis in human cardiac fibroblasts; assay type: cell-based; settings: FIGS. 1 and 2 panel D
Experimental: Cell Culture Human cardiac fibroblasts (primary culture) were obtained from Promocell and maintained in medium (Fibroblast Media 3). Cells were cultured according to the manufacturer's instructions and used between passages 5 and 7. Cells were stimulated with aldosterone (10^-8 M, Sigma) or recombinant hNGAL (500 ng/mL, R&D Systems) for 24 h for protein analysis. Mouse kidney fibroblasts (MKF), were isolated from Wild Type (WT) mice. Briefly, mice 7 to 8 weeks were sacrificed by cervical dislocation and kidneys were cleaned and rinsed in cold DPBS (Dulbecco's Phosphate-Buffered Saline). […]
Total protein aliquots of 20 μg were prepared from cardiac homogenates and electrophoresed on SDS polyacrylamide gels and transferred to Hybond-c Extra nitrocellulose membranes (Amersham Biosciences). […] After densitometric analyses, optical density values were expressed as arbitrary units. Results are expressed as an n-fold increase over the values of the control group in densitometric arbitrary units.
(§2) NGAL, IL6 and collagen type I concentrations were measured in cardiac tissue and cell supernatants, respectively, by ELISA according to the manufacturer's instructions (R&D Systems).
The inhibitory activity of the compounds was evaluated on the NGAL-induced IL6 secretion (NGAL 10 ng/ml) in human cardiac fibroblasts. […]

[5] = target: T3, NGAL (Homo sapiens, UniProt P80188); assay: NGAL-induced IL6 secretion in human cardiac fibroblasts (ELISA); assay type: cell-based; settings: NGAL 10 ng/ml, FIGS. 1 and 2 panel A
T3 construct: purchased R&D Systems
T3 sequence (P80188 21-198): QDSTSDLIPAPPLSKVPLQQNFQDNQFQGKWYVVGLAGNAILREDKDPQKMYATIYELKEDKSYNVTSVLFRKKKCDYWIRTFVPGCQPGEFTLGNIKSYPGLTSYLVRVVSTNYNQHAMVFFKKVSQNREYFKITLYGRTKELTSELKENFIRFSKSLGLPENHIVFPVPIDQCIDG
Experimental: Cell Culture Human cardiac fibroblasts (primary culture) were obtained from Promocell and maintained in medium (Fibroblast Media 3). Cells were cultured according to the manufacturer's instructions and used between passages 5 and 7. Cells were stimulated with aldosterone (10^-8 M, Sigma) or recombinant hNGAL (500 ng/mL, R&D Systems) for 24 h for protein analysis. Mouse kidney fibroblasts (MKF), were isolated from Wild Type (WT) mice. Briefly, mice 7 to 8 weeks were sacrificed by cervical dislocation and kidneys were cleaned and rinsed in cold DPBS (Dulbecco's Phosphate-Buffered Saline). The renal cortex was minced and incubated in Dulbecco's modified eagle medium/Nutrient mixture F-12 (DMEM/F12, Sigma) containing 1 mg/mL collagenase A (Roche) during 25 minutes at 37° C. The digestion was inactivated by adding culture medium (DMEM/F12+10% FBS) then the cell suspension was passed through a 100-μm cell strainer. After centrifugation, the pellet (containing MKF) was diluted with culture medium then plated in 75 cm^2 culture flask. After 24 hours MKF were washed with DPBS before replacement of fresh culture medium. Thereafter, culture medium was changed every 48 hours. Once 70-80% confluent, MKF were trypsinized and plated in 12 or 6-well plates. For experimental use, MKF were starved with culture medium containing only 3% FBS. MKF were treated with mNGAL (500 ng/mL, R&D Systems) for 24 h for gene expression analysis.
as §2
The inhibitory activity of the compounds was evaluated on the NGAL-induced IL6 secretion (NGAL 10 ng/ml) in human cardiac fibroblasts.
Inhibitory activities of 23 second generation compounds derived from GPZ614741 and GPZ058225 were evaluated on the NGAL-induced IL6 secretion (NGAL 10 ng/ml) in human cardiac fibroblasts.

T1 sequence (Q12809 whole entry): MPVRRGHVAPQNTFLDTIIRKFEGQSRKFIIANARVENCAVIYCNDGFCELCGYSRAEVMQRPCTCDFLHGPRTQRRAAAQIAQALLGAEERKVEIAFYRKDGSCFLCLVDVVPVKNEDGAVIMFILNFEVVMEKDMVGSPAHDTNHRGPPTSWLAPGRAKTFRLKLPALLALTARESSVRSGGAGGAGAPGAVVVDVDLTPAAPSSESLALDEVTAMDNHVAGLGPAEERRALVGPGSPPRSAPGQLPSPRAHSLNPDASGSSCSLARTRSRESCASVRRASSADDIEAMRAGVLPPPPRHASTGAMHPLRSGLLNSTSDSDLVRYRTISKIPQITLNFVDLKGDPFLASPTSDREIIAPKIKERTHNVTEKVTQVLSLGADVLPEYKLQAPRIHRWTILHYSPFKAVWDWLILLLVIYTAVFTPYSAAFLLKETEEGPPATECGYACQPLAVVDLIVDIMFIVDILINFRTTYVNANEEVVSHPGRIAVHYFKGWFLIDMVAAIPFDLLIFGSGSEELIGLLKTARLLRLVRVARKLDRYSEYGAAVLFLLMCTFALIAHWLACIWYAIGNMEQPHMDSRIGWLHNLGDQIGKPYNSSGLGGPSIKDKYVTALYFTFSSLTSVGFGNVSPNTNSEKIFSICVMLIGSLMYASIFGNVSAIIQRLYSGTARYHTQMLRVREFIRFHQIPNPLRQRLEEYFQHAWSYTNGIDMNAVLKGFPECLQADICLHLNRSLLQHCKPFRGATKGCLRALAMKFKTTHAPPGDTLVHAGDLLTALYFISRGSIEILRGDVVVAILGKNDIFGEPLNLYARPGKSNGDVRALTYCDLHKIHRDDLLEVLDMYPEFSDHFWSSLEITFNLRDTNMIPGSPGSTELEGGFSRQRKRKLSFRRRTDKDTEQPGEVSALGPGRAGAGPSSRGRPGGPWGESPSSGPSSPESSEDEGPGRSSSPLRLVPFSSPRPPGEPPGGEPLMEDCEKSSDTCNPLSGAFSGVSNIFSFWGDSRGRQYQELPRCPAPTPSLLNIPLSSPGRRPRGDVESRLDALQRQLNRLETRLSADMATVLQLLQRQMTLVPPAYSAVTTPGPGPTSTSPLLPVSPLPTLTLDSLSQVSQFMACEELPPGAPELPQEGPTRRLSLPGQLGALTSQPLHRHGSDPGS

- processing by CYP3A4 [2]: partially processed
- Activity ([2]; human, recombinant CYP3A4 (Vivid CYP3A4 assay kit), 100 = no inhibition, read-out: CyP 3A4 Inhibition % (100 = no inhibition)): 72.2 ± 1.94%
- NGAL-induced IL6 secretion [5]: inhibited
SMILES: CC(=O)c1cccc(S(=O)(=O)NCc2ccccc2-n2cccn2)c1 [GPZ614741]
- cardiotoxicity (hERG predictor assay) [1]: no toxicity
- Cardiotoxicity % (100 = no toxicity) ([1]; 100 = no toxicity): 101.76 ± 2.48%
- profibrotic target genes (collagen1, fibronectin, alphaSMA) ([3]; FIG. 15A): blunted the increase
- inflammatory markers (IL6, MCP1, TNFalpha) ([3]; FIG. 15B): no effects
- aldosterone-induced profibrotic marker (Col1, CT-1, or IL6) synthesis [4]: inhibited
